Results from article PMC8353992 (Journal of medicinal chemistry, 2021).

Key:
[1] = for decrease in CLint compared to 36: human, rat, s9
[2] = molecular target: SARS-CoV-2 3CL^pro (Severe acute respiratory syndrome coronavirus 2, UniProt P0DTD1); assay type: biochemical
[3] = human, pH 7.4

O=C(Nc1ccc(N(Cc2ccsc2)C(=O)Cn2nnc3ccccc32)cc1)C1CC1 [Compound 1, reference compound]
microsomal clearance ([1]; microsomes): exceptionally high

O=C(Cn1nnc2ccccc21)N(Cc1ccsc1)c1ccc(-c2cccnc2)cc1 [Compound 8, 2-(1H-Benzo[d][1,2,3]triazol-1-yl)-N-(4-(pyridin-3-yl)phenyl)-N-(thiophen-3-ylmethyl)acetamide]
ligand efficiency (LE) [2]: 0.27

O=C(Cn1nnc2ccccc21)N(Cc1cccc(Cl)c1)c1ccc(-c2cn[nH]c2)cc1 [Compound 36, N-(4-(1H-Pyrazol-4-yl)phenyl)-2-(1H-benzo[d][1,2,3]triazol-1-yl)-N-(3-chlorobenzyl)acetamide]
M1 metabolite formation (oxidation of the benzylic 3-chlorophenyl ring) [3]: 60%
M3 metabolite formation (cleavage of the 3-chlorobenzyl group) [3]: 7%

O=C(Cc1cccnc1)N(Cc1cccc(Cl)c1)c1ccc(-c2cn[nH]c2)cc1 [Compound 42, N-[(3-Chlorophenyl)methyl]-N-[4-(1H-pyrazol-4-yl)phenyl]-2-(3-pyridyl)acetamide]
decrease in CLint compared to 36 [1]: 2 fold

O=C(Cc1cncnc1)N(Cc1cccc(Cl)c1)c1ccc(-c2cn[nH]c2)cc1 [Compound 43, N-[(3-Chlorophenyl)methyl]-N-[4-(1H-pyrazol-4-yl)phenyl]-2-pyrimidin-5-yl-acetamide]
decrease in CLint compared to 36 [1]: 4 fold
